US20200032249A1, “LABELING, ISOLATION, & ANALYSIS OF RNA FROM RARE CELL POPULATIONS” (priority 2017, published 2020)
Where two headings read alike, the source gives them in different places.

Assays:
[1] = system: CD/UPRT-expressing cells; type: cell-based; conditions: human
Description: FIG. 2a-b. Flura-tagging has minimal cytotoxicity. FIG. 2a—Effect of Flura-tagging on stress granule formation. MDA231 cells were treated with 5-FC for the indicated times, and the formation of stress granules was detected by G3BP immunostaining. Control cells were either treated with water or sodium arsenite (Arsenite) for one hour. Arrows indicate stress granules (n=3). Scale bar=20 μM. FIG. 2b—Effect of Flura-tagging on transcription. RNA expression in control cells was compared to CD/UPRT-expressing cells treated with the indicated concentrations of 5-FC for 4 h or 12 h. Each dot represents a gene, with the outer/lighter gray dots indicating genes showing more than 2-fold differential expression, as determined by DESeq2 (n=2). The dotted line represents the four-fold cutoff mark.
For a more sensitive analysis of potential alterations caused by Flura-tagging, we investigated the transcriptional changes occurring under these experimental conditions. We compared the transcriptome of cells treated with two different concentrations of 5-FC (50 μM and 250 μM) at two different time points (4 h and 12 h) with that of control cells, using RNA-seq. […] This number increased to 190, 1325 and 1965 genes in cells treated with 250 μM 5-FC for 4 h, 50 μM 5-FC for 12 h, and 250 μM 5-FC for 12 h, respectively (FIG. 2b). Moreover, a majority of these differences in gene expression were within a four-fold range (FIG. 2b).
RNA-seq library preparation. Total RNA was purified using Qiagen RNeasy Mini Kit. Quality and quantity was checked by Agilent […]. 10 ng RNA per sample was used for library construction with Sample Prep Kit v2 (Illumina) according to manufacturer's instructions. Libraries were multiplex sequenced libraries on a Hiseq2500 platform, and more than 25 million raw paired-end reads were generated for each sample.
Reads were quality checked using FastQC v0.11.5 and mapped to a human (hg19) or hybrid human-mouse (hg19-mm10) genome with STAR2.5.2b (22) using standard settings for paired reads. Uniquely mapped reads were assigned to annotated genes with HTSeq v0.6.1p1 (23) with default settings. Read counts were normalized by library size, and differential gene expression analysis based on a negative binomial distribution was performed using DESeq2 v3.4 (24). In general, thresholds for differential expression were set as follows: adjusted p-value<0.05, fold change >2.0 or <0.5, and average normalized read count >10. Genes were considered detectable in the immunoprecipitation samples with a normalized read count >100. Gene set enrichment analysis was performed using GSVA v3.4 (25) and previously curated gene sets (26): HALLMARK_TGF_BETA_SIGNALING, HALLMARK_HEDGEHOG_SIGNALING, HALLMARK_WNT_BETA_CATENIN_SIGNALING, HALLMARK_PI3_K_AKT_MTOR_SIGNALING, HALLMARK_NOTCH_SIGNALING, HALLMARK_KRAS_SIGNALING_UP, CORDENONSI_YAP_CONSERVED_SIGNATURE, HALLMARK_IL6_JAK_STAT3_SIGNALING.

[2] = system: CD/UPRT-expressing MDA231 cells; test: expression of representative human genes in mouse lung lysates by RT-PCR; type: in vivo; conditions: 250 mg/kg, 8 h, mouse lungs
Description: FIG. 5 a-e. Flura-tagging enables transcriptional profiling from micrometastatic lung xenografts. FIG. 5a—Representative H & E stained sections of mouse lungs harboring micrometastases (arrows) used in Flura-tagging experiments. […] Scale bar=2 mm (top), 100 μM (bottom). FIG. 5b—Representative micrometastasis in the context of lung vasculature. MDA231 cells were stained with anti-GFP antibody, blood vessels with anti-CD31 antibody and nuclei (DNA) with Hoechst 33258. Scale bar=50 μM. FIG. 5c—Quantification of the number of cells per micrometastasis per tissue section in engrafted lungs of mice used in the Flura-tagging experiments. The number of nuclei in individual micrometastases in lung sections from 16 separate mice were counted. […] Expression of the indicated representative genes in the lung lysates containing control MDA231 cells or MDA231 cells expressing CD/UPRT and treated with 250 mg/kg 5-FC for 8 h, was measured by RT-PCR using human specific primers (n=3). […] FIG. 5e—Flow cytometric quantification of the number of RFP+ MDA231 cells in mouse lung in the Flura-tagging experiments. […]
Mouse experiments were performed following the protocols approved by the MSKCC Institutional Animal Care and Use Committee (IACUC). […] Proliferation of injected cancer cells were quantified using bioluminescence imaging following retroorbital injection of luciferin. […]

Compound: Nc1nc(=O)[nH]cc1F [5-FC, 5-fluorocytosine]
- genes with more than 4-fold difference ([1]; 4 h, 50 μM): 10 genes
- genes with statistically significant differences in expression vs control cells ([1]; 4 h, 50 μM): 113 genes
- genes with more than 4-fold difference ([1]; 4 h, 250 μM): 15 genes
- genes with statistically significant differences in expression vs control cells ([1]; 4 h, 250 μM): 190 genes
- genes with more than 4-fold difference ([1]; 12 h, 50 μM): 102 genes
- genes with statistically significant differences in expression vs control cells ([1]; 12 h, 50 μM): 1325 genes
- genes with more than 4-fold difference ([1]; 12 h, 250 μM): 182 genes
- genes with statistically significant differences in expression vs control cells ([1]; 12 h, 250 μM): 1965 genes
- range of expression of representative human genes vs control MDA231 cells [2]: ≤ 2 fold
